Consider four compounds from patent publication US20240294533A1, “2-(HET)ARYL-SUBSTITUTED CONDENSED HETEROCYCLE DERIVATIVES AS PEST CONTROL AGENTS” (Bayer Aktiengesellschaft, priority 2021, published 2024).

Series [1] has as its system Spodoptera frugiperda. As to the kind of experiment: Spodoptera frugiperda spray test (cotton leaves). It counts as in vivo. The conditions noted are these: 4 ppm, after 7 days. The text has this:
Spodoptera Frustiperda—Spray Test Solvent: 14 parts by weight of dimethylformamide Emulsifier: alkylaryl polyglycol ether An appropriate active ingredient formulation is produced by dissolving 1 part by weight of active ingredient with the stated parts by weight of solvent and making the solution up to the desired concentration with water containing an emulsifier concentration of 1000 ppm. Further test concentrations are produced by diluting the formulation with emulsifier-containing water. If the addition of ammonium salts or/and penetrants is required, these are each added in a concentration of 1000 ppm to the formulation solution. Cotton leaves (Gossypium hirsutum) are sprayed with an active ingredient formulation of the desired concentration and populated with caterpillars of the armyworm (Spodoptera frugiperda). After 7 days, the kill in % is determined. 100% means that all the caterpillars have been killed; 0% means that none of the caterpillars have been killed.

The subject of series [2] is Meloidogyne incognita. As to the kind of experiment: Meloidogyne incognita test. It counts as in vivo. The conditions noted are these: Meloidogyne incognita, 336 h, lettuce, gall formation after 14 days, read-out: nematicidal efficacy. The source says:
Meloidogyne incognita Test Solvent: 125.0 parts by weight of acetone An appropriate active ingredient formulation is produced by mixing 1 part by weight of active ingredient with the stated amount of solvent and diluting the concentrate to the desired concentration with water. Vessels are filled with sand, active ingredient solution, an egg/larvae suspension of the southern root-knot nematode (Meloidogyne incognita) and lettuce seeds. The lettuce seeds germinate and the plants develop. The galls develop on the roots. After 14 days, the nematicidal efficacy in % is determined by the formation of galls. 100% means that no galls were found; 0% means that the number of galls on the treated plants corresponds to the untreated control.

Series [3] in a line: log P by HPLC on reversed-phase column (C18). It counts as physicochemical. The conditions noted are these: LC-UV, neutral range, ammonium acetate/acetonitrile, read-out: log P (neutral). On the procedure: log P Values The log P values were determined according to EEC Directive 79/831 Annex V.A8 by HPLC (high-performance liquid chromatography) on a reversed-phase column (C18) using the following methods: ^[a] […] Calibration was carried out using straight-chain alkan-2-ones (having 3 to 16 carbon atoms) with known log P values. The values between successive alkanones are determined by linear regression.

For series [4], the system named is Nezara viridula. As to the kind of experiment: Nezara viridula spray test (plants sprayed, then infected). The format is in vivo. The conditions noted are these: 500 g/ha, barley plants, after 4 days. The text has this: (§1) Nezara viridula—Spray Test Solvent: 78.0 parts by weight of acetone • • 1.5 parts by weight of dimethylformamide Emulsifier: alkylaryl polyglycol ether An appropriate active ingredient formulation is produced by dissolving 1 part by weight of active ingredient with the stated parts by weight of solvent and making the solution up to the desired concentration with water containing an emulsifier concentration of 1000 ppm. Further test concentrations are produced by diluting the formulation with emulsifier-containing water. Barley plants (Hordeum vulgare) are sprayed with an active ingredient formulation of the desired concentration and are infected with larvae of the Southern green shield bug (Nezara viridula). After 4 days, efficacy in % is determined. 100% means that all of the shield bugs have been killed; 0% means that none of the shield bugs have been killed.

For series [5], the system named is Diabrotica balteata. As to the kind of experiment: Diabrotica balteata spray test. It counts as in vivo. The conditions noted are these: Diabrotica balteata, 168 h; 100 g/ha (=32 μg/cavity), wheat grains, after 7 days; read-out: efficacy. The source says:
Diabrotica balteata—Spray Test Solvent: 78 parts by weight of acetone • • 1.5 parts by weight of dimethylformamide Emulsifier: alkylaryl polyglycol ether An appropriate active ingredient formulation is produced by dissolving 1 part by weight of active ingredient with the stated parts by weight of solvent and making the solution up to the desired concentration with water containing an emulsifier concentration of 1000 ppm. Further test concentrations are produced by diluting the formulation with emulsifier-containing water. Pre-swollen wheat grains (Triticum aestivum) are incubated in a multiwell plate filled with agar and a little water for one day (5 seed grains per cavity). The germinated wheat grains are sprayed with an active ingredient formulation of the desired concentration. Subsequently, each cavity is infected with 10-20 beetle larvae of Diabrotica balteata. After 7 days, efficacy in % is determined. 100% means that all wheat plants have grown as in the untreated, uninfected control; 0% means that no wheat plant has grown.

The subject of series [6] is Tetranychus urticae. As to the kind of experiment: Tetranychus urticae spray test, OP-resistant. It counts as in vivo. The conditions noted are these: 500 g/ha, bean leaf discs, after 6 days. The text has this: Tetranychus urticae—Spray Test, OP-Resistant
Solvent: 78.0 parts by weight of acetone • • 1.5 parts by weight of dimethylformamide
Emulsifier: alkylaryl polyglycol ether
An appropriate active ingredient formulation is produced by dissolving 1 part by weight of active ingredient with the stated parts by weight of solvent and making the solution up to the desired concentration with water containing an emulsifier concentration of 1000 ppm. Further test concentrations are produced by diluting the formulation with emulsifier-containing water.
Discs of bean leaves (Phaseolus vulgaris) infested with all stages of the greenhouse red spider mite (Tetranychus urticae) are sprayed with an active ingredient formulation of the desired concentration.
After 6 days, efficacy in % is determined. 100% means that all the spider mites have been killed; 0% means that no spider mites have been killed.

The test system of series [7] is Spodoptera frugiperda. Put plainly: Spodoptera frugiperda spray test (maize leaf discs). The format is in vivo. The conditions noted are these: Spodoptera frugiperda, foliar, 168 h, after 7 days, read-out: efficacy. The text has this: Spodoptera Frusiperda—Spray Test Solvent: 78.0 parts by weight of acetone • • 1.5 parts by weight of dimethylformamide Emulsifier: alkylaryl polyglycol ether An appropriate active ingredient formulation is produced by dissolving 1 part by weight of active ingredient with the stated parts by weight of solvent and making the solution up to the desired concentration with water containing an emulsifier concentration of 1000 ppm. Further test concentrations are produced by diluting the formulation with emulsifier-containing water. Leaf discs of maize (Zea mays) are sprayed with an active ingredient formulation of the desired concentration and, after drying, populated with caterpillars of the fall armyworm (Spodoptera frugiperda). After 7 days, efficacy in % is determined. 100% means that all the caterpillars have been killed; 0% means that no caterpillar has been killed.

Series [8] relates to Myzus persicae. As to the kind of experiment: Myzus persicae spray test. The format is in vivo. The conditions noted are these: 20 ppm, bell pepper plants, after 6 days. The text has this: Myzus persicae—Spray Test Solvent: 14 parts by weight of dimethylformamide Emulsifier: alkylaryl polyglycol ether An appropriate active ingredient formulation is produced by dissolving 1 part by weight of active ingredient with the stated parts by weight of solvent and making the solution up to the desired concentration with water containing an emulsifier concentration of 1000 ppm. Further test concentrations are produced by diluting the formulation with emulsifier-containing water. If the addition of ammonium salts or/and penetrants is required, these are each added in a concentration of 1000 ppm to the formulation solution. Bell pepper plants (Capsicum annuum) severely infested with the green peach aphid (Myzus persicae) are treated by spraying with the active ingredient formulation in the desired concentration. After 6 days, the kill rate in % is determined. 100% means that all of the aphids have been killed; 0% means that none of the aphids have been killed.

Series [9] deals with Nezara viridula. Put plainly: Nezara viridula spray test (infected barley plants sprayed). The format is in vivo. The conditions noted are these: 100 g ai/ha, after 4 days.
Text: as §1, with “52.5” for “78.0”, “7” for “• 1.5”, “water. If the addition of ammonium salts or/and penetrants is required, these are each added in a concentration of 1000 ppm to the formulation solution.” for “water.”, “vulgare) infected with larvae of the Southern green shield bug (Nezara viridula)” for “vulgare)”, “concentration.” for “concentration and are infected with larvae of the Southern green shield bug (Nezara viridula).”

For `CCS(=O)(=O)c1ccc(-n2ncn(-c3ccc(F)cc3)c2=O)nc1-c1nc2cc(C(F)(F)C(F)(F)F)cnc2n1C` [Example I-02, 2-[5-Ethylsulfonyl-6-[3-methyl-6-(1,1,2,2,2-pentafluoroethyl)imidazo[4,5-b]pyridin-2-yl]-2-pyridyl]-4-(4-fluorophenyl)-1,2,4-triazol-3-one], the “efficacy (kill)” value in [1] was found to be 100%. Also, the pest or weed control at 20 ppm in series [2] was 100%. For the same compound, the chromatographic logP in series [3] amounted to 3.53. For the same compound, the efficacy in series [4] turned out to be 100%. The pest or weed control at 100 g/ha in series [5] was 100%.
`CCS(=O)(=O)c1ccc(-n2ncn(-c3ccc(C(=O)OC)cc3)c2=O)nc1-c1nc2cc(C(F)(F)C(F)(F)F)cnc2n1C` [Example I-03] had an efficacy in series [6] of 90%. Also, the pest or weed control at 100 g/ha in [5] amounted to 100%.
As for `CCS(=O)(=O)c1ccc(-n2ncn(-c3ccc(C#N)cc3)c2=O)nc1-c1nc2cc(C(F)(F)C(F)(F)F)nnc2n1C` [Example I-06], the pest or weed control at 100 g/ha in series [7] and in series [5] was 100% in each case. Moreover, in series [8], the “efficacy (kill rate)” value is on record as 95%. Moreover, the efficacy in series [4] is 100%.
For the compound `CCS(=O)(=O)c1ccc(-n2ncn(-c3cccc(F)c3)c2=O)nc1-c1nc2cc(C(F)(F)C(F)(F)F)nnc2n1C` [Example I-12], the pest or weed control at 100 g/ha in series [7] and in series [5] was 100% each time. Also, in [2], the pest or weed control at 20 ppm amounted to 100%. The “efficacy (kill rate)” value in series [8] came out at 98%. For the same compound, the efficacy in [9] was 100%.
